Data taken from patent US20230295068A1, “NOVEL CYCLOALKENONE COMPOUND OR SALT THEREOF” (TAIHO PHARMACEUTICAL CO., LTD., priority 2020, published 2023).

Columns and labels:
[1] = Pharmacokinetics: plasma concentration after oral administration to rats; type: in vivo, rat; details: 10 mg/kg; for AUC(0-inf) / Cmax: Crl:CD(SD) (Sprague-Dawley), male rat (Crl: CD (SD)), plasma
Protocol: The required amounts of compounds were weighed, and drug suspensions were prepared in 0.5% hydroxypropyl methylcellulose. The number of rats in each group was two, and each drug suspension was administered orally to each male rat (Crl: CD (SD)) using an oral sonde (the dose of the compound was 10 mg/kg). At each blood collection point (0.5, 1, 2, 4, 8, and 24 hours after administration), blood was collected from the jugular vein using a syringe and a needle (the anticoagulant was heparin sodium). The collected blood was centrifuged (13000 rpm, 2 min, 4° C.) to prepare plasma, followed by deproteinization. Thereafter, the concentration of the compound in the plasma was measured by LC/MS/MS (ICMS-8040 (Shimadzu Corporation) or API 4000 (AB Sciex), IC: 30-A and 20-A series (Shimadzu Corporation) or Waters Acquity (Waters Corporation)).

[2] = system: streptozotocin (STZ)-induced DM model SD rats; assay: Evaluation of drug efficacy in diabetes mellitus (DM) rat model (bladder function, residual urine volume); type: in vivo; details: oral twice a day for 4 weeks
Protocol: To examine the effect of the compound in a diabetes mellitus model, bladder function was analyzed by […] based on the method of Saitoh et al. (European Journal of Pharmacology 501 (2004) 143-149).
A streptozotocin (STZ) solution obtained by dissolving STZ in a citrate buffer solution (0.1 M citric acid, pH of 4.2) to a concentration of 32.5 mg/mL was prepared, and administered intraperitoneally (65 mg/kg) to SD rats to induce DM models. The same procedure was performed on sham rats except that a citrate buffer solution was used in place of the STZ solution.
On the day after the model production and 4 weeks later, a blood sample was taken from the tail vein with the rats awake to measure the blood glucose level. […] Individuals with a blood glucose level of 300 mg/dL or more on the day after the production of the model and 4 weeks later were determined to be established DM models and used in subsequent operations. […]
A pressure transducer (DX-360, Nihon Kohden Kogyo Co., Ltd.) and an infusion pump (TE-331S, Terumo Corporation) were connected via a three-way valve to the other end of a catheter inserted into the bladder. […] The volume of urination was automatically measured using an electronic balance (GX-200, A&D Company Limited) set directly under the holding cage, and recorded continuously on a computer using a PowerLab (sampling rate: 20/sec). […]

ND3 neuronal cell line = assay: Measurement of nerve growth stimulation effect (neurite bearing assay, neurite length assay, number of cells); type: cell-based; details: for viability at 1 µM / viability at 3 µM / viability at 5 µM / viability at 10 µM / viability at 30 µM / viability at 100 µM: 6 hours; for viability at 1 µM / viability at 3 µM / viability at 5 µM / viability at 10 µM / viability at 30 µM / viability at 100 µM / Number of cells: relative cell number, DMSO well = 1; for Number of cells: ND3 cells, 6 h
Method in brief: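 ND3 cells were exposed 6 h to compounds in DMEM with 0.1% BSA (0.1% DMSO final), in duplicate. Neurite-bearing fraction (neurite longer than cell-body diameter) and neurite length per cell were scored by imaging and expressed relative to compound 24 maximum. Cell number was relative to DMSO wells; data with relative count <0.5 were excluded.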

Row | Compound | AUC(0-inf) [1] [µM·h] | Cmax [1] [nM] | improvement in area under the curve (AUC) as compared to the compound 4 ([1]; rat) [times] | improvement in maximum blood concentration Cmax as compared to the compound 4 ([1]; rat) [times] | drug efficacy (residual urine volume, FIG. 1) as compared to the compound 4 [2] | viability at 1 µM (ND3 neuronal cell line) [%] | viability at 3 µM (ND3 neuronal cell line) [%] | viability at 5 µM (ND3 neuronal cell line) [%] | viability at 10 µM (ND3 neuronal cell line) [%] | viability at 30 µM (ND3 neuronal cell line) [%] | viability at 100 µM (ND3 neuronal cell line) [%] | number of relative cells (ND3 neuronal cell line; 1 to 100 μM) | Number of cells (ND3 neuronal cell line; 1 μM compound) | Number of cells (ND3 neuronal cell line; 3 μM compound) | Number of cells (ND3 neuronal cell line; 5 μM compound) | Number of cells (ND3 neuronal cell line; 10 μM compound) | Number of cells (ND3 neuronal cell line; 30 μM compound) | Number of cells (ND3 neuronal cell line; 100 μM compound)
1 | COCCCCCCCCCCCCCCCC1=C(C)C(=O)CCC1(C)C [Compound 24, 3-(15-methoxypentadecyl)-2,4,4-trimethylcyclohex-2-en-1-one] | 5.9 | 2200 | ≥ 1900 | ≥ 1100 | remarkable drug efficacy | 106 | 101 | 94 | 92 | 96 | 92 | ≥ 0.5 | – | – | – | – | – | –
2 | COCCCCCCCCCCCCCCCC1=CC(=O)CCC1(C)C [Compound 39, 3-(15-methoxypentadecyl)-4,4-dimethylcyclohex-2-en-1-one] | – | – | – | – | – | 83 | 100 | – | 97 | 97 | 49 | – | – | – | – | – | – | –
3 | COCCCCCCCCCCCCCCC1=C(C)C(=O)CCC1(C)C [Compound 21, 3-(14-methoxytetradecyl)-2,4,4-trimethylcyclohex-2-en-1-one] | – | – | – | – | – | 104 | 111 | 102 | 103 | 82 | 96 | – | – | – | – | – | – | –
4 | CC1=C(CCCCCCCCCCCCCCC(N)=O)C(C)(C)CC1=O [Compound 74, 15-(2,5,5-trimethyl-3-oxocyclopent-1-en-1-yl)pentadecanamide] | – | – | – | – | – | – | – | – | – | – | – | – | 0.74 | 0.75 | 0.71 | 0.73 | 0.60 | 0.26
5 | COCCCCCCCCCCCCCCCC1=C(C)CCCC1(C)C [Compound 64, 2-(15-methoxypentadecyl)-1,3,3-trimethylcyclohex-1-ene] | – | – | – | – | – | – | – | – | – | – | – | – | 0.80 | 0.93 | 0.96 | 0.88 | 0.96 | 0.53
6 | CCCOCCCCCCCCCCCCC1=C(C)C(=O)CC1(C)C [Compound 71, 2,4,4-trimethyl-3-(12-propoxydodecyl)cyclopent-2-en-1-one] | – | – | – | – | – | – | – | – | – | – | – | – | 0.87 | 0.94 | 0.87 | 0.79 | 0.39 | 0.07
7 | CCOCCCCCCCCCCCCCCCC1=C(C)C(=O)CCC1(C)C [Compound 25, 3-(15-ethoxypentadecyl)-2,4,4-trimethylcyclohex-2-en-1-one] | – | – | – | – | – | 97 | 103 | 97 | 97 | 98 | 94 | – | – | – | – | – | – | –
8 | CC1(C)CCC(=O)C=C1CCCCCCCCCCCCCCCO [Compound 8, 3-(15-hydroxypentadecyl)-4,4-dimethylcyclohex-2-en-1-one, reference compound] | – | – | – | – | – | 101 | 102 | 98 | 93 | 6 | 9 | – | – | – | – | – | – | –
9 | COCCCCCCCCCCCCCCC1=C(C)C(=O)CC1(C)C [Compound 72, 3-(14-methoxytetradecyl)-2,4,4-trimethylcyclopent-2-en-1-one] | – | – | – | – | – | – | – | – | – | – | – | – | 0.84 | 0.85 | 0.78 | 0.80 | 0.41 | 0.38
10 | COC(C)(C)CCCCCCCCCCCCCCC1=C(C)C(=O)CCC1(C)C [Compound 48, 3-(15-methoxy-15-methylhexadecyl)-2,4,4-trimethylcyclohex-2-en-1-one] | – | – | – | – | – | 85 | 93 | 91 | 90 | 93 | 87 | – | – | – | – | – | – | –
11 | CC1=C(CCCCCCCCCCCCCCC(N)=O)C(C)(C)CCC1=O [Compound 32, 15-(2,6,6-trimethyl-3-oxocyclohex-1-en-1-yl)pentadecanamide] | – | – | – | – | – | 92 | 93 | 81 | 81 | 54 | 9 | – | – | – | – | – | – | –
12 | COCCCCCCCCCCCCCCCC1=C(C)C(=O)CC1 [Compound 45, 3-(15-methoxypentadecyl)-2-methylcyclopent-2-en-1-one] | – | – | – | – | – | 94 | 90 | 74 | 83 | 71 | 75 | – | – | – | – | – | – | –
13 | CCOCCCCCCCCCCCCCC1=C(C)C(=O)CCC1(C)C [Compound 17, 3-(13-ethoxytridecyl)-2,4,4-trimethylcyclohex-2-en-1-one] | – | – | – | – | – | 99 | 105 | 97 | 104 | 72 | 81 | – | – | – | – | – | – | –
14 | CCNC(=O)OCCCCCCCCCCCCCCCC1=C(C)C(=O)CCC1(C)C [Compound 56, 15-(2,6,6-trimethyl-3-oxocyclohex-1-en-1-yl)pentadecylethylcarbamate] | – | – | – | – | – | 94 | 106 | 93 | 95 | 95 | 93 | – | – | – | – | – | – | –
15 | CC1=C(CCCCCCCCCCCCCCCO)C(C)(C)CCC1=O [Compound 4, 3-(15-hydroxypentadecyl)-2,4,4-trimethylcyclohex-2-en-1-one, reference compound] | 0.003 | 2 | – | – | – | 103 | 92 | 92 | 101 | 19 | – | – | – | – | – | – | – | –
16 | CC1=C(CCCCCCCCCCCCCCO)C(C)(C)CCC1=O [Compound 3, 3-(14-hydroxytetradecyl)-2,4,4-trimethylcyclohex-2-en-1-one, reference compound] | – | – | – | – | – | 98 | 105 | 110 | 108 | 11 | 13 | – | – | – | – | – | – | –
